Activity calls are given as the source filed them. No cut-off for these calls is given here.
Assays:
Malme-3M = test: Growth inhibition of human MALME-3M cells at 10 uM after 48 hrs by sulforhodamine B assay; assay type: functional; settings: read-out: GI
LOX IMVI = test: Growth inhibition of human LOXIMVI cells at 10 uM after 48 hrs by sulforhodamine B assay; assay type: functional
SNB-75 = test: Growth inhibition of human SNB75 cells at 10 uM after 48 hrs by sulforhodamine B assay; assay type: functional; settings: SNB-75, 48 h, read-out: GI
SNB-19 = test: Growth inhibition of human SNB19 cells at 10 uM after 48 hrs by sulforhodamine B assay; assay type: functional
SF-539 = test: Growth inhibition of human SF539 cells at 10 uM after 48 hrs by sulforhodamine B assay; assay type: functional; settings: SF-539, 48 h, read-out: GI
SF-295 = test: Growth inhibition of human SF295 cells at 10 uM after 48 hrs by sulforhodamine B assay; assay type: functional; settings: SF-295, 48 h, read-out: GI
SF-268 = test: Growth inhibition of human SF268 cells at 10 uM after 48 hrs by sulforhodamine B assay; assay type: functional
KM12 = test: Growth inhibition of human KM12 cells at 10 uM after 48 hrs by sulforhodamine B assay; assay type: functional
SW-620 = test: Growth inhibition of human SW620 cells at 10 uM after 48 hrs by sulforhodamine B assay; assay type: functional
HT-29 = test: Growth inhibition of human HT-29 cells at 10 uM after 48 hrs by sulforhodamine B assay; assay type: functional
HCT-15 = test: Growth inhibition of human HCT15 cells at 10 uM after 48 hrs by sulforhodamine B assay; assay type: functional
HCT-116 = test: Growth inhibition of human HCT116 cells at 10 uM after 48 hrs by sulforhodamine B assay; assay type: functional; settings: HCT-116, 48 h, read-out: GI
HCC 2998 = test: Growth inhibition of human HCC2998 cells at 10 uM after 48 hrs by sulforhodamine B assay; assay type: functional
COLO 205 = test: Growth inhibition of human COLO205 cells at 10 uM after 48 hrs by sulforhodamine B assay; assay type: functional
NCI-H522 = test: Growth inhibition of human NCI-H522 cells at 10 uM after 48 hrs by sulforhodamine B assay; assay type: functional; settings: NCI-H522, 48 h, read-out: GI
NCI-H460 = test: Growth inhibition of human NCI-H460 cells at 10 uM after 48 hrs by sulforhodamine B assay; assay type: functional
NCI-H322M = test: Growth inhibition of human NCI-H322M cells at 10 uM after 48 hrs by sulforhodamine B assay; assay type: functional
NCI-H23 = test: Growth inhibition of human NCI-H23 cells at 10 uM after 48 hrs by sulforhodamine B assay; assay type: functional
NCI-H226 = test: Growth inhibition of human NCI-H226 cells at 10 uM after 48 hrs by sulforhodamine B assay; assay type: functional
HOP-92 = test: Growth inhibition of human HOP92 cells at 10 uM after 48 hrs by sulforhodamine B assay; assay type: functional
HOP-62 = test: Growth inhibition of human HOP62 cells at 10 uM after 48 hrs by sulforhodamine B assay; assay type: functional
[1] = Growth inhibition of human EKVX cells at 10 uM after 48 hrs by sulforhodamine B assay; assay type: functional; settings: read-out: GI
SR = test: Growth inhibition of human SR cells at 10 uM after 48 hrs by sulforhodamine B assay; assay type: functional; settings: read-out: GI
RPMI-8226 = test: Growth inhibition of human RPMI8226 cells at 10 uM after 48 hrs by sulforhodamine B assay; assay type: functional; settings: RPMI-8226, 48 h, read-out: GI
MOLT-4 = test: Growth inhibition of human MOLT4 cells at 10 uM after 48 hrs by sulforhodamine B assay; assay type: functional; settings: MOLT-4, 48 h, read-out: GI
K562 = test: Growth inhibition of human K562 cells at 10 uM after 48 hrs by sulforhodamine B assay; assay type: functional
HL-60(TB) = test: Growth inhibition of human HL-60(TB) cells at 10 uM after 48 hrs by sulforhodamine B assay; assay type: functional; settings: HL-60, 48 h, read-out: GI
CCRF-CEM = test: Growth inhibition of human CCRF-CEM cells at 10 uM after 48 hrs by sulforhodamine B assay; assay type: functional; settings: read-out: GI
Carbonic anhydrase 9 = Carbonic anhydrase 9 (Homo sapiens, UniProt Q16790); test: Inhibition of human carbonic anhydrase 9 after 15 mins by stopped flow CO2 hydration assay
MDA-MB-468 = test: Growth inhibition of human MDA-MB-468 cells at 10 uM after 48 hrs by sulforhodamine B assay; assay type: functional
T47D = test: Growth inhibition of human T47D cells at 10 uM after 48 hrs by sulforhodamine B assay; assay type: functional; settings: read-out: GI
BT-549 = test: Growth inhibition of human BT549 cells at 10 uM after 48 hrs by sulforhodamine B assay; assay type: functional; settings: BT-549, 48 h, read-out: GI
Hs-578T = test: Growth inhibition of human Hs 578T cells at 10 uM after 48 hrs by sulforhodamine B assay; assay type: functional
MDA-MB-231 = test: Growth inhibition of human MDA-MB-231 cells at 10 uM after 48 hrs by sulforhodamine B assay; assay type: functional
MCF7 = test: Growth inhibition of human MCF7 cells at 10 uM after 48 hrs by sulforhodamine B assay; assay type: functional
DU-145 = test: Growth inhibition of human DU145 cells at 10 uM after 48 hrs by sulforhodamine B assay; assay type: functional
PC-3 = test: Growth inhibition of human PC3 cells at 10 uM after 48 hrs by sulforhodamine B assay; assay type: functional
UO-31 = test: Growth inhibition of human UO31 cells at 10 uM after 48 hrs by sulforhodamine B assay; assay type: functional; settings: UO-31, 48 h, read-out: GI
TK-10 = test: Growth inhibition of human TK10 cells at 10 uM after 48 hrs by sulforhodamine B assay; assay type: functional
SN12C = test: Growth inhibition of human SN12C cells at 10 uM after 48 hrs by sulforhodamine B assay; assay type: functional
RXF 393 = test: Growth inhibition of human RXF393 cells at 10 uM after 48 hrs by sulforhodamine B assay; assay type: functional
CAKI-1 = test: Growth inhibition of human CAKI-1 cells at 10 uM after 48 hrs by sulforhodamine B assay; assay type: functional; settings: CAKI-1, 48 h, read-out: GI
ACHN = test: Growth inhibition of human ACHN cells at 10 uM after 48 hrs by sulforhodamine B assay; assay type: functional
A498 = test: Growth inhibition of human A498 cells at 10 uM after 48 hrs by sulforhodamine B assay; assay type: functional
786-0 = test: Growth inhibition of human 786-0 cells at 10 uM after 48 hrs by sulforhodamine B assay; assay type: functional
SK-OV-3 = test: Growth inhibition of human SKOV3 cells at 10 uM after 48 hrs by sulforhodamine B assay; assay type: functional
NCI/ADR-RES = test: Growth inhibition of human NCI-ADR-RES cells at 10 uM after 48 hrs by sulforhodamine B assay; assay type: functional
OVCAR-5 = test: Growth inhibition of human OVCAR5 cells at 10 uM after 48 hrs by sulforhodamine B assay; assay type: functional
OVCAR-4 = test: Growth inhibition of human OVCAR4 cells at 10 uM after 48 hrs by sulforhodamine B assay; assay type: functional
OVCAR-3 = test: Growth inhibition of human OVCAR3 cells at 10 uM after 48 hrs by sulforhodamine B assay; assay type: functional
IGROV-1 = test: Growth inhibition of human IGROV1 cells at 10 uM after 48 hrs by sulforhodamine B assay; assay type: functional
UACC-62 = test: Growth inhibition of human UACC62 cells at 10 uM after 48 hrs by sulforhodamine B assay; assay type: functional
SK-MEL-5 = test: Growth inhibition of human SK-MEL-5 cells at 10 uM after 48 hrs by sulforhodamine B assay; assay type: functional
SK-MEL-28 = test: Growth inhibition of human SK-MEL-28 cells at 10 uM after 48 hrs by sulforhodamine B assay; assay type: functional, cell-based
SK-MEL-2 = test: Growth inhibition of human SK-MEL-2 cells at 10 uM after 48 hrs by sulforhodamine B assay; assay type: functional
MDA-MB-435 = test: Growth inhibition of human MDA-MB-435 cells at 10 uM after 48 hrs by sulforhodamine B assay; assay type: functional
M14 = test: Growth inhibition of human M14 cells at 10 uM after 48 hrs by sulforhodamine B assay; assay type: functional

NS(=O)(=O)c1cnccc1N1CCN(c2ccccc2)CC1
inhibition of growth at 10 µM (Malme-3M): 8% | growth inhibition (GI) (LOX IMVI): inactive | inhibition of growth at 10 µM (SNB-75): 1% | growth inhibition (GI) (SNB-19): inactive | inhibition of growth at 10 µM (SF-539): 3% | inhibition of growth at 10 µM (SF-295): 4% | growth inhibition (GI) (SF-268): inactive | growth inhibition (GI) (KM12): inactive | growth inhibition (GI) (SW-620): inactive | growth inhibition (GI) (HT-29): inactive | growth inhibition (GI) (HCT-15): inactive | inhibition of growth at 10 µM (HCT-116): 1% | growth inhibition (GI) (HCC 2998): inactive | growth inhibition (GI) (COLO 205): inactive | inhibition of growth at 10 µM (NCI-H522): 1% | growth inhibition (GI) (NCI-H460): inactive | growth inhibition (GI) (NCI-H322M): inactive | growth inhibition (GI) (NCI-H23): inactive | growth inhibition (GI) (NCI-H226): inactive | growth inhibition (GI) (HOP-92): inactive | growth inhibition (GI) (HOP-62): inactive | inhibition of growth at 10 µM [1]: 4% | inhibition of growth at 10 µM (SR): 8% | inhibition of growth at 10 µM (RPMI-8226): 10% | inhibition of growth at 10 µM (MOLT-4): 5% | growth inhibition (GI) (K562): inactive | inhibition of growth at 10 µM (HL-60(TB)): 2% | inhibition of growth at 10 µM (CCRF-CEM): 7% | Ki (Carbonic anhydrase 9): 0.124 µM | growth inhibition (GI) (MDA-MB-468): inactive | inhibition of growth at 10 µM (T47D): 1% | inhibition of growth at 10 µM (BT-549): 4% | growth inhibition (GI) (Hs-578T): inactive | growth inhibition (GI) (MDA-MB-231): inactive | growth inhibition (GI) (MCF7): inactive | growth inhibition (GI) (DU-145): inactive | growth inhibition (GI) (PC-3): inactive | inhibition of growth at 10 µM (UO-31): 14% | growth inhibition (GI) (TK-10): inactive | growth inhibition (GI) (SN12C): inactive | growth inhibition (GI) (RXF 393): inactive | inhibition of growth at 10 µM (CAKI-1): 8% | growth inhibition (GI) (ACHN): inactive | growth inhibition (GI) (A498): inactive | growth inhibition (GI) (786-0): inactive | growth inhibition (GI) (SK-OV-3): inactive | growth inhibition (GI) (NCI/ADR-RES): inactive | growth inhibition (GI) (OVCAR-5): inactive | growth inhibition (GI) (OVCAR-4): inactive | growth inhibition (GI) (OVCAR-3): inactive | growth inhibition (GI) (IGROV-1): inactive | growth inhibition (GI) (UACC-62): inactive | growth inhibition (GI) (SK-MEL-5): inactive | growth inhibition (GI) (SK-MEL-28): inactive | growth inhibition (GI) (SK-MEL-2): inactive | growth inhibition (GI) (MDA-MB-435): inactive | growth inhibition (GI) (M14): inactive

— ChEMBL document CHEMBL2434896, “Carbonic anhydrase inhibitors. Synthesis of heterocyclic 4-substituted pyridine-3-sulfonamide derivatives and their inhibition of the human cytosolic isozymes I and II and transmembrane tumor-associated isozymes IX and XII” (Eur J Med Chem, 2013)
